Drawing on ChEMBL document CHEMBL4706505, “F10, a new camptothecin derivative, was identified as a new orally-bioavailable, potent antitumor agent” (Eur J Med Chem, 2020), this text covers IC50, Activity and inhibition for one compound.

Assay [1] has as its system HCT-116. The assay can be described thus: Cytotoxicity against human HCT-116 assessed as reduction in cell viability measured after 72 hrs by MTT assay. It counts as functional, cell-based. To be noted: HCT-116, 72 h.
The test system of assay [2] is HCT-116. The assay can be described thus: Induction of apoptosis in human HCT-116 cells assessed as late apoptotic cells level at 0.001 uM incubated for 24 hrs by Annexin V-FITC/PI staining based flow cytometry (reference value: 0.07%). The assay is classed as functional. (In flow cytometry, cells or beads pass a laser one at a time.)
The next assay deals with Raji. The assay can be described thus: Antitumor activity against NPG mouse xenografted with human Raji cell assessed as decrease in tumor volume at 8 mg/kg, ig measured on the 1 day. It counts as functional.
For assay [3], the target named is T1, DNA topoisomerase 1 (Homo sapiens) (UniProt P11387).
T1 sequence (whole entry): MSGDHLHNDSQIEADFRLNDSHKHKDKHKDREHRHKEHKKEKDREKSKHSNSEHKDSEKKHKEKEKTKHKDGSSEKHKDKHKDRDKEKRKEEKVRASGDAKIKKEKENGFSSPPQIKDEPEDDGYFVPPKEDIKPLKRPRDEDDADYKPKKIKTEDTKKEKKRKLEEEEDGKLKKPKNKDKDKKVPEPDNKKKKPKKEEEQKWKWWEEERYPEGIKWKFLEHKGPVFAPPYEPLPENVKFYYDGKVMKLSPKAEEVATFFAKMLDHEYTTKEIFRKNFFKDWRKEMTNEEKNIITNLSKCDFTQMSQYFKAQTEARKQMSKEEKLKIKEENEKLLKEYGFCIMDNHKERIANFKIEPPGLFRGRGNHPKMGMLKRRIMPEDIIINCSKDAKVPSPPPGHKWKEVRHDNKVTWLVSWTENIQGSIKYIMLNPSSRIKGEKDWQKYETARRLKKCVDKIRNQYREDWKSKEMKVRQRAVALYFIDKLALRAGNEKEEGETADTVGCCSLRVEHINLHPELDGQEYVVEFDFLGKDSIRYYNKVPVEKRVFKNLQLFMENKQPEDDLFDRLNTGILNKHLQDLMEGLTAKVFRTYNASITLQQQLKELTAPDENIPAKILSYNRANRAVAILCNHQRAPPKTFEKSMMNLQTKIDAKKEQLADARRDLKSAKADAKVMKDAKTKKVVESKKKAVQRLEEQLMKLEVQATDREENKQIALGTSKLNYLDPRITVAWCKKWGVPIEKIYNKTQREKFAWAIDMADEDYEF
The assay can be described thus: Inhibition of human recombinant topoisomerase I using DNA pBR322 as substrate assessed as relaxed DNA at 100 uM incubated for 30 mins by gel electrophoresis analysis relative to control.

The target of assay [4] is T1, DNA topoisomerase 1 (Homo sapiens). The assay can be described thus: Inhibition of human recombinant topoisomerase I using DNA pBR322 as substrate assessed as relaxed DNA at 1 uM incubated for 30 mins by gel electrophoresis analysis relative to control.

The structures appear in SMILES notation.

A word on the IC50: it is the concentration needed to halve the response being measured. A word on the inhibition: it is how much of the control response was suppressed. For the compound `CCc1c2c(nc3ccc(OCC(=O)N4CCCCC4)cc13)-c1cc3c(c(=O)n1C2)COC(=O)[C@]3(O)CC`, the IC50 in the assay with HCT-116 [1] came to 3 nM. In addition, the Activity in the assay on HCT-116 [2] is given as 5.48%; with Raji, 956 mm3. The inhibition in assay [3] is 63.5%; in assay [4] it was 38.1%.
